From patent US11708348B2, “Protease inhibitors for treatment of coronavirus infections” (The Scripps Research Institute, priority 2021, dated 2023) come the findings set out here.

Structures are written as SMILES. Where only a bound is given, the exact number is not on record here.

The first assay concerns SARS-CoV-2 strain USA-WA1/2020. Nature of the assay: microbe, parasite or virus in culture. Particulars: Severe acute respiratory syndrome coronavirus 2, HeLa-ACE2, 24 h, HeLa-ACE2 cells, SARS-CoV-2 infection, 24 h; cells given as a bound; read-out: EC50, uM (Hela). Type of assay: cell-based.
The EC50 is the midpoint of the concentration-response curve. `COc1cccc2[nH]c(C(=O)N[C@@H](CC(C)C)C(=O)N[C@@H](C[C@@H]3CCNC3=O)C(=O)COCC(F)(F)F)cc12` [Compound 162, 4-methoxy-N-((S)-4-methyl-1-oxo-1-(((S)-3-oxo-1-((S)-2-oxopyrrolidin-3-yl)-4-(2,2,2-trifluoroethoxy)butan-2-yl)amino)pentan-2-yl)-1H-indole-2-carboxamide]: the EC50 is greater than 1 µM.

Still in this assay, the particulars now being: Severe acute respiratory syndrome coronavirus 2, HeLa-ACE2, 24 h, HeLa-ACE2 cells, SARS-CoV-2 infection, 24 h; class symbols; read-out: EC50, uM (Hela).
In the case of `CC(C)C[C@H](NC(=O)C(=O)NC1(CF)CC1)C(=O)N[C@@H](C[C@@H]1CCNC1=O)C(=O)COC(F)(F)F` [Compound 254, Nl-(l-(fluoromethyl)-cyclopropyl)-N2-((S)-4-methyl-1-oxo-1-(((S)-3-oxo-1-((S)-2-oxopyrrolidin-3-yl)-4-(trifluoromethoxy)butan-2-yl)amino)pentan-2-yl)oxalamide], the EC50 is less than 0.05 µM.

Consider `CC(C)C[C@H](NC(=O)C(=O)Nc1ccccc1C(C)C)C(=O)N[C@@H](C[C@@H]1CCNC1=O)C(=O)COc1c(F)c(F)cc(F)c1F` [Compound 86, Nl-(2-isopropylphenyl)-N2-((S)-4-methyl-1-oxo-1-(((S)-3-oxo-1-((S)-2-oxopyrrolidin-3-yl)-4-(2,3,5,6-tetrafluorophenoxy)butan-2-yl)amino)pentan-2-yl)oxalamide], for which the concentration for a half-maximal effect (EC50) is less than 0.05 µM.

As to `O=C1NCC[C@H]1C[C@H](NC(=O)[C@@H]1CC2(CC2)CN1C(=O)[C@H](O)Cc1ccccc1)C(=O)COC(F)(F)F` [Compound 398, (S)-5-((R)-2-hydroxy-3-phenylpropanoyl)-N-((S)-3-oxo-1-((S)-2-oxopyrrolidin-3-yl)-4-(trifluoromethoxy)butan-2-yl)-5-azaspiro[2.4]heptane-6-carboxamide], the EC50 lay in the range of 0.05 to 0.2 µM.

In the case of `CC(C)(C)C[C@H](NC(=O)[C@H]1CCCO1)C(=O)N[C@@H](C[C@@H]1CCNC1=O)C(=O)COC(F)(F)F` [Compound 301, (R)-N-((S)-4,4-dimethyl-1-oxo-1-(((S)-3-oxo-1-((S)-2-oxopyrrolidin-3-yl)-4-(trifluoromethoxy)butan-2-yl)amino)pentan-2-yl)tetrahydrofuran-2-carboxamide], the EC50 was less than 0.05 µM.

As for `CC(C)C[C@H](NC(=O)O[C@H]1CO[C@H]2OCC[C@H]21)C(=O)N[C@@H](C[C@@H]1CCNC1=O)C(=O)COc1c(F)c(F)cc(F)c1F` [Compound 150, (3R,3aS,6aR)-hexahydrofuro[2,3-b]furan-3-yl ((S)-4-methyl-1-oxo-1-(((S)-3-oxo-1-((S)-2-oxopyrrolidin-3-yl)-4-(2,3,5,6-tetrafluorophenoxy)butan-2-yl)amino)pentan-2-yl)carbamate], the EC50 lay in the range of 0.2 to 0.5 µM.

Consider `CC(C)C[C@H](NC(=O)C(=O)Nc1ccccc1Cc1ccccc1)C(=O)N[C@@H](C[C@@H]1CCNC1=O)C(=O)COc1c(F)c(F)cc(F)c1F` [Compound 57, N1-(2-benzylphenyl)-N2-((S)-4-methyl-1-oxo-1-(((S)-3-oxo-1-((S)-2-oxopyrrolidin-3-yl)-4-(2,3,5,6-tetrafluorophenoxy)butan-2-yl)amino)pentan-2-yl)oxalamide], for which the EC50 fell in the range of 0.2 to 0.5 µM.

On to `CC(C)C[C@H](NC(=O)C(=O)N1CCCc2ccccc21)C(=O)N[C@@H](C[C@@H]1CCNC1=O)C(=O)COc1c(F)c(F)cc(F)c1F` [Compound 149, (S)-2-(2-(3,4-dihydroquinolin-1(2H)-yl)-2-oxoacetamido)-4-methyl-N-((S)-3-oxo-l-((S)-2-oxopyrrolidin-3-yl)-4-(2,3,5,6-tetrafluorophenoxy)butan-2-yl)pentanamide], for which the EC50 was in the range of 0.05 to 0.2 µM.

On to `CC(C)C[C@H](NC(=O)[C@H]1CCCO1)C(=O)N[C@@H](C[C@@H]1CCNC1=O)C(=O)COc1c(F)c(F)cc(F)c1F` [Compound 26, (R)-N-((S)-4-methyl-1-oxo-1-(((S)-3-oxo-1-((S)-2-oxopyrrolidin-3-yl)-4-(2,3,5,6-tetrafluorophenoxy)butan-2-yl)amino)pentan-2-yl)tetrahydrofuran-2-carboxamide], for which the EC50 fell in the range of 0.2 to 0.5 µM.

Regarding `O=C1NCC[C@H]1C[C@H](NC(=O)[C@@H]1CC2(CC2)CN1C(=O)C(O)c1ccc(F)c(F)c1)C(=O)COC(F)(F)F` (stereo partly drawn) [Compound 400, (6S)-5-(2-(3,4-difluorophenyl)-2-hydroxyacetyl)-N-((S)-3-oxo-1-((S)-2-oxopyrrolidin-3-yl)-4-(trifluoromethoxy)butan-2-yl)-5-azaspiro[2.4]heptane-6-carboxamide], the EC50 was 0.05 to 0.2 µM.

Turning to `Cc1cccc(C)c1NC(=O)C(=O)N[C@@H](CC(C)C)C(=O)N[C@@H](C[C@@H]1CCNC1=O)C(=O)COC(F)(F)F` [Compound 152, N1-(2,6-dimethylphenyl)-N2-((S)-4-methyl-1-oxo-1-(((S)-3-oxo-1-((S)-2-oxopyrrolidin-3-yl)-4-(trifluoromethoxy)butan-2-yl)amino)pentan-2-yl)oxalamide], the EC50 is less than 0.05 µM.

For the molecule `COc1ccc(NC(=O)C(=O)N[C@@H](CC(C)C)C(=O)N[C@@H](C[C@@H]2CCNC2=O)C(=O)COc2c(F)c(F)cc(F)c2F)cc1` [Compound 121, N1-(4-methoxyphenyl)-N2-((S)-4-methyl-1-oxo-1-(((S)-3-oxo-1-((S)-2-oxopyrrolidin-3-yl)-4-(2,3,5,6-tetrafluorophenoxy)butan-2-yl)amino)pentan-2-yl)oxalamide], the EC50 is less than 0.05 µM.

On to `CC(C)C[C@H](NC(=O)C(=O)Nc1ccccc1F)C(=O)N[C@@H](C[C@@H]1CCNC1=O)C(=O)COc1c(F)cc(F)cc1F` [Compound 131, N1-(2-fluorophenyl)-N2-((S)-4-methyl-1-oxo-1-(((S)-3-oxo-1-((S)-2-oxopyrrolidin-3-yl)-4-(2,4,6-trifluorophenoxy)butan-2-yl)amino)pentan-2-yl)oxalamide], for which the EC50 is 0.2 to 0.5 µM.

Staying with this assay, now noted: Severe acute respiratory syndrome coronavirus 2, HeLa-ACE2, 24 h, HeLa-ACE2 cells, SARS-CoV-2 infection, 24 h; read-out: EC50, uM (Hela).
Take `O=C(NC1CC(F)(F)C1)C(=O)N1C[C@@H]2CCC[C@@H]2[C@H]1C(=O)N[C@@H](C[C@@H]1CCNC1=O)C(=O)COC(F)(F)F` [Compound 523, (1S,3aR,6aS)-2-(2-((3,3-difluorocyclobutyl)-amino)-2-oxoacetyl)-N-((S)-3-oxo-1-((S)-2-oxopyrrolidin-3-yl)-4-(trifluoromethoxy)butan-2-yl)octahydrocyclo-penta[c]pyrrole-1-carboxamide]: the EC50 is less than 0.05 µM.

As to `C=CC[C@@H](O)C(=O)N1CC2(CC2)C[C@H]1C(=O)N[C@@H](C[C@@H]1CCNC1=O)C(=O)COC(F)(F)F` [Compound 662, (S)-5-((R)-2-hydroxypent-4-enoyl)-N-((S)-3-oxo-1-((S)-2-oxopyrrolidin-3-yl)-4-(trifluoromethoxy)butan-2-yl)-5-azaspiro[2.4]heptane-6-carboxamide], the EC50 is 0.05 to 0.2 µM.

As for `O=C1NCC[C@H]1C[C@H](NC(=O)[C@@H]1CC2(CC2)CN1C(=O)C(O)c1cccnc1)C(=O)COC(F)(F)F` (stereo partly drawn) [Compound 419, (6S)-5-(2-hydroxy-2-(pyridin-3-yl)acetyl)-N-((S)-3-oxo-1-((S)-2-oxopyrrolidin-3-yl)-4-(trifluoromethoxy)butan-2-yl)-5-azaspiro[2.4]heptane-6-carboxamide], the EC50 was 0.5 to 1 µM.

With `CC(C)C[C@@H](O)C(=O)N1CCCCC[C@H]1C(=O)N[C@@H](C[C@@H]1CCNC1=O)C(=O)COC(F)(F)F` [Compound 639, (S)-1-((R)-2-hydroxy-4-methylpentanoyl)-N-((S)-3-oxo-1-((S)-2-oxopyrrolidin-3-yl)-4-(trifluoromethoxy)butan-2-yl)azepane-2-carboxamide], the EC50 is less than 0.05 µM.

As to `CC(C)C[C@H](NC(=O)C1CC2(CC2)CO1)C(=O)N[C@@H](C[C@@H]1CCNC1=O)C(=O)COC(F)(F)F` (stereo partly drawn) [Compound 789, N-((S)-4-methyl-1-oxo-1-(((S)-3-oxo-1-((S)-2-oxopyrrolidin-3-yl)-4-(trifluoromethoxy)butan-2-yl)amino)pentan-2-yl)-5-oxaspiro[2.4]heptane-6-carboxamide], the EC50 is less than 0.05 µM.

Consider `CC(C)(F)c1cc(C(=O)N2C[C@H]3[C@@H]([C@H]2C(=O)N[C@@H](C[C@@H]2CCNC2=O)C(=O)COC(F)(F)F)C3(C)C)no1` [Compound 478, (1R,2S,5S)-3-(5-(2-fluoropropan-2-yl)isoxazole-3-carbonyl)-6,6-dimethyl-N-((S)-3-oxo-1-((S)-2-oxopyrrolidin-3-yl)-4-(trifluoromethoxy)butan-2-yl)-3-azabicyclo[3.1.0]hexane-2-carboxamide], for which the EC50 was less than 0.05 µM.

For the molecule `CN1CCC[C@H]1C(=O)N1C[C@@H]2CCC[C@@H]2[C@H]1C(=O)N[C@@H](C[C@@H]1CCNC1=O)C(=O)COC(F)(F)F` [Compound 440, (1S,3aR,6aS)-2-(methylprolyl)-N-((S)-3-oxo-1-((S)-2-oxopyrrolidin-3-yl)-4-(trifluoromethoxy)butan-2-yl)octahydrocyclo-penta[c]pyrrole-1-carboxamide], the 50% effective concentration (EC50) was 0.5 to 1 µM.

The assay is the same for the next values; noted with them: Severe acute respiratory syndrome coronavirus 2, HeLa-ACE2, 24 h; read-out: EC50, uM (Hela).
In the case of `CC(C)(C)[C@H](NC(=O)C(F)(F)F)C(=O)N1C[C@H]2[C@@H]([C@H]1C(=O)N[C@@H](C[C@@H]1CCNC1=O)C(=O)COC(F)(F)F)C2(C)C` [Compound 264, (1R,2S,5S)-3-((S)-3,3-dimethyl-2-(2,2,2-trifluoroacetamido)butanoyl)-6,6-dimethyl-N—((S)-3-oxo-1-((S)-2-oxopyrrolidin-3-yl)-4-(trifluoromethoxy)butan-2-yl)-3-azabicyclo[3.1.0]hexane-2-carboxamide], the EC50 is less than 0.05 µM.

As to `CC(C)C[C@H](NC(=O)C(=O)Nc1ccccc1F)C(=O)N[C@@H](C[C@@H]1CCNC1=O)C(=O)COP(=O)(c1ccccc1)c1ccccc1` [Compound 125, (S)-3-((S)-2-(2-((2-fluorophenyl)amino)-2-oxoacetamido)-4-methylpentanamido)-2-oxo-4-((S)-2-oxopyrrolidin-3-yl)butyl diphenylphosphinate], the EC50 is less than 0.05 µM.
